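Tested at 5 concentrations; 48 h exposure; 96-well plates; endpoints linearly interpolated, else capped at highest concentration. TGI: total growth inhibition.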 Where a SMILES comes first, the peptide text is derived from it. [ ]: non-standard residue; d: D form. The star is where a group is joined. NMeV = CN[C@H](C(=O)O)C(C)C; X29 = COc1ccc(CN*)c(OC)c1; Octanoyl = CCCCCCCC(=O)*; dNMeA = CN[C@H](C)C(=O)O
What was measured:
Assay in all cases: DTP human tumour cell line panel, 48 h
786-0 renal = system: 786-0 renal
BT-549 breast = system: BT-549 breast
HCC-2998 colon = system: HCC-2998 colon
HOP-92 NSCLC = system: HOP-92 NSCLC
HS 578T breast = system: HS 578T breast
IGROV1 ovarian = system: IGROV1 ovarian
KM12 colon = system: KM12 colon
MCF7 breast = system: MCF7 breast
NCI-H226 lung = system: NCI-H226 lung
NCI-H460 lung = system: NCI-H460 lung
NCI-H522 lung = system: NCI-H522 lung
NCI/ADR-RES ovarian = system: NCI/ADR-RES ovarian
OVCAR-5 ovarian = system: OVCAR-5 ovarian
SF-268 CNS = system: SF-268 CNS
SK-MEL-2 melanoma = system: SK-MEL-2 melanoma
SN12C renal = system: SN12C renal
SR leukemia = system: SR leukemia
SW-620 colon = system: SW-620 colon
TK-10 renal = system: TK-10 renal

Row | SMILES | TGI (786-0 renal) | TGI (BT-549 breast) | TGI (HCC-2998 colon) | TGI (HOP-92 NSCLC) | TGI (HS 578T breast) | TGI (IGROV1 ovarian) | TGI (KM12 colon) | TGI (MCF7 breast) | TGI (NCI-H226 lung) | TGI (NCI-H460 lung) | TGI (NCI-H522 lung) | TGI (NCI/ADR-RES ovarian) | TGI (OVCAR-5 ovarian) | TGI (SF-268 CNS) | TGI (SK-MEL-2 melanoma) | TGI (SN12C renal) | TGI (SR leukemia) | TGI (SW-620 colon) | TGI (TK-10 renal)
1 | O=[N+]([O-])c1nccn1CCCNc1ccnc2cc(Cl)ccc12 | > 100 µM | > 100 µM | 55.3 µM | > 21 µM | > 100 µM | > 100 µM | > 26.6 µM | > 100 µM | 10.8 µM | > 12 µM | 6.71 µM | > 100 µM | > 100 µM | > 65.6 µM | > 95.7 µM | > 85.1 µM | > 75.3 µM | > 100 µM | > 11.7 µM
2 | O=C1C=CC2(C=C1)O[C@H](Cc1ccccc1)[C@@H](Cc1ccccc1)O2 | […] | 0.563 µM | 11.1 µM | 2.71 µM | 2.42 µM | 0.583 µM | 4.51 µM | 1.51 µM | 0.902 µM | 30.8 µM | 0.42 µM | 1.11 µM | 1.34 µM | 2.48 µM | 3.33 µM | 3.01 µM | 3.26 µM | 0.254 µM | 1.66 µM
3 | COC(=O)[C@@H]1[C@H](OC(C)=O)CCC2[C@@]3(C[C@@H](c4ccoc4)O[C@@H]3OC)[C@H](C)CC[C@]21C(=O)OC (stereo not given in full) | > 25 µM | > 25 µM | > 25 µM | > 25 µM | > 25 µM | > 25 µM | > 25 µM | > 25 µM | > 25 µM | > 25 µM | > 25 µM | > 25 µM | > 25 µM | > 25 µM | > 25 µM | > 25 µM | > 25 µM | > 25 µM | > 25 µM
4 | CC1=NN(C(=O)c2ccncc2)C(=O)C1 | > 100 µM | > 100 µM | > 100 µM | > 100 µM | > 100 µM | > 100 µM | > 100 µM | > 100 µM | > 100 µM | > 100 µM | > 100 µM | > 100 µM | > 100 µM | > 100 µM | > 100 µM | > 100 µM | > 100 µM | > 100 µM | > 100 µM
5 | Cc1cc(S(=O)(=O)Nc2nc3ccccc3nc2-c2cccc([N+](=O)[O-])c2)c(S)cc1Cl | 45.6 µM | 72.8 µM | 39.1 µM | 46.5 µM | 73.4 µM | 30.4 µM | 31.3 µM | 64.5 µM | 44.5 µM | 35.3 µM | 38.9 µM | 48.3 µM | 88.4 µM | 56.2 µM | 42.2 µM | 78.5 µM | 47.4 µM |  | > 100 µM
6 | COc1c(Br)cc2c(c1OC)C(Br)CCC(Br)(Br)C2=O (stereo not given) | 1.46 µM | 1.37 µM | 16.6 µM | 12.5 µM | > 71.7 µM | 5.76 µM | 14.6 µM | 6.13 µM | 5.84 µM | 8.92 µM | 2 µM | 2.77 µM | 13.6 µM | 4.37 µM | 4.4 µM | 1.42 µM | 1.29 µM | 1.58 µM | 8.39 µM
7 | Oc1ccc(-c2cc(-c3cc(-c4ccc(O)cc4)no3)on2)cc1 | > 100 µM | > 100 µM | > 100 µM | > 100 µM | > 100 µM | > 100 µM | > 100 µM | > 100 µM | > 100 µM | > 100 µM | > 100 µM | > 100 µM | > 100 µM | > 100 µM | > 100 µM | > 100 µM | > 31.6 µM | > 100 µM | > 100 µM
8 | CCCCCCCC(=O)N[C@H](C(=O)N[C@H](C(=O)N(C)[C@H](C(=O)N1CCC[C@H]1C(=O)N(C)[C@H](C)C(=O)NCc1ccc(OC)cc1OC)C(C)C)C(C)C)C(C)C (Octanoyl-VV[NMeV]P[dNMeA]-X29) | > 100 µM | > 61.2 µM | > 100 µM | 36.7 µM | 33.4 µM | 32.8 µM | > 100 µM | 42.8 µM | 27.5 µM | > 100 µM | 31.4 µM | > 100 µM | > 100 µM | > 100 µM | 42.3 µM | > 100 µM | > 65.6 µM | > 100 µM | > 100 µM
9 | COc1cc2c(cc1OC)C1C=NC(C2)c2cc(OC)c(OC)cc21 (stereo not given) | > 100 µM | > 100 µM | > 100 µM | > 100 µM | > 100 µM | > 100 µM | > 100 µM | > 100 µM | > 100 µM | > 100 µM | > 100 µM | > 100 µM | > 100 µM | > 100 µM | > 100 µM | > 100 µM | > 100 µM | > 100 µM | > 100 µM
10 | CS(=O)(=O)OCC1CN(S(C)(=O)=O)c2cc(O)ccc21 (stereo not given) | 12 µM | 8.85 µM | 4.47 µM | 7.08 µM | > 100 µM | 22.4 µM | 13 µM | 26.2 µM | 12.3 µM | 10.5 µM | 2.94 µM | 19.9 µM | 18.3 µM | 13.5 µM | 6.88 µM | 13.5 µM | > 100 µM | 28.3 µM | 6.62 µM
11 | COc1cc(/C=C/c2nc(NC(=S)Nc3ccccc3)nnc2C)cc(OC)c1OC | > 100 µM | 89 µM | 26.4 µM | > 100 µM | > 100 µM | 93.7 µM | 27.6 µM | > 100 µM | 81.4 µM | 36.8 µM | 28.4 µM | > 100 µM | > 100 µM | > 100 µM | 38.1 µM | > 100 µM | > 100 µM | > 100 µM | > 100 µM
12 | CCN1C(=O)c2cc(OC)c(OC)cc2C(=O)C12OC(=O)c1cc3c(cc12)OCO3 (stereo not given) | 53.7 µM | > 100 µM | > 100 µM | > 100 µM | > 100 µM | > 100 µM | > 100 µM | > 100 µM | > 100 µM | > 100 µM | > 100 µM | > 100 µM | > 100 µM | > 100 µM | 49.9 µM | > 100 µM | > 100 µM | > 100 µM | > 100 µM
13 | CN(C)c1ccc(C(Cc2ccccc2)C2NC(=S)NC2=O)cc1 (stereo not given) | > 100 µM | > 100 µM | > 100 µM | > 100 µM | > 100 µM | > 100 µM | > 100 µM | > 100 µM | > 100 µM | > 100 µM | > 100 µM | > 100 µM | > 100 µM | > 100 µM | > 100 µM | > 100 µM | > 100 µM | > 100 µM | > 100 µM
14 | C[C@]12CC[C@@H]3c4cc(OCC(F)(F)F)c(O)cc4CC[C@H]3[C@@H]1CC[C@@H]2O | 18.1 µM | 89.6 µM | 16.9 µM | 21.8 µM | 23 µM | 23.8 µM | 12.7 µM | 17.3 µM | 24.7 µM | 15.5 µM | 3.88 µM | 36.8 µM | 37.7 µM | 35.2 µM | 18.5 µM | 15.5 µM | 2.47 µM | 9.03 µM | 40.4 µM
15 | COC(=O)[C@H](CCSC)NC(=O)N[C@H](C)c1ccccc1 | > 100 µM | > 100 µM | > 100 µM | > 100 µM | > 100 µM | > 100 µM | > 100 µM | > 100 µM | > 100 µM | > 100 µM | 47.5 µM | > 100 µM | > 100 µM | > 100 µM | > 100 µM | > 100 µM | > 100 µM | > 100 µM | > 100 µM
16 | C=CCN1C(=O)/C(=C/c2cccs2)N=C1SC/C=C/C | > 100 µM | > 100 µM | > 100 µM | > 100 µM | > 100 µM | > 100 µM | > 100 µM | > 100 µM | > 100 µM | > 100 µM | 97.5 µM | > 100 µM | > 100 µM | > 100 µM | 65.8 µM | 86.6 µM | 45.8 µM | > 100 µM | > 100 µM
17 | Cc1ccc(NC(Nc2ccc(C)cc2C)=C(/C=C(\Cl)[N+](=O)[O-])[N+](=O)[O-])c(C)c1 | 8.95 µM | 11.7 µM | 38.4 µM | 3.99 µM | 17 µM | 20.9 µM | 26.7 µM | 12.4 µM | 22.1 µM | 36.7 µM | 4.52 µM | 48.8 µM | 19.7 µM | 10.3 µM | 16.9 µM | 14.4 µM | 4.13 µM | 4.02 µM | 13.2 µM
18 | COCc1nc(N)nc(N2N=C(C)CC2(C)C)n1 | > 100 µM | > 100 µM | > 100 µM | > 100 µM | > 100 µM | > 100 µM | > 100 µM | > 100 µM | > 100 µM | > 100 µM | > 100 µM | > 100 µM | > 100 µM | > 100 µM | > 100 µM | > 100 µM | > 100 µM | > 100 µM | > 100 µM
19 | CC(=O)Nc1ccc(C(O)/C(=N/N)c2nc3ccc(Cl)cc3[nH]c2=O)cc1 (stereo not given) | > 100 µM | > 100 µM | > 100 µM | > 100 µM | > 100 µM | > 100 µM | > 100 µM | > 100 µM | > 100 µM | > 100 µM | > 100 µM | > 100 µM | > 100 µM | > 100 µM | > 100 µM | > 100 µM | > 100 µM | > 100 µM | > 100 µM

From PubChem BioAssay (NCI)
